The values below come from patent US20080008771A1, “Nitric Oxide Dioxygenase Inhibitors” (priority 2004, published 2008).

Several values for one entry are separate records, joined by “and”; a condition that tells them apart may be missing. Equal entries are not always repeated. Where two headings read alike, the source gives them in different places.

The subject of series [1] is microsomal NO metabolism (Caco-2 microsomes). Particulars: for IC50: read-out: IC50, microsomal NO metabolism. The protocol: NO metabolism by cell fractions was assayed in 100 mM Na-Hepes, pH 7.8, 0.25 M sucrose, 1 mM EDTA and 1 mM EGTA (Sucrose Buffer) containing 15 μM Cu,ZnSOD and 100 μM NADPH. Cell fractions were added with a 50 μl Hamilton syringe to give a total of 100-750 μg protein. For determination of O2 dependence of microsomal NO metabolism, the 2 ml reaction was sparged with N2 for 10 minutes to remove O2, and O2 was depleted from microsomal membranes by stirring membranes under a stream of N2 in a rubber septum-sealed tube on ice. Alternatively, residual O2 was removed by incubating the reaction mix with 16 units glucose oxidase, 1 mM glucose and 260 units catalase for 5 minutes prior to adding NO and microsomes. O2 was added from O2 saturated buffer to achieve various O2 concentrations.
Data represent the average of two or more two independent trials.
NO consumption by Caco-2 microsomes was assayed as previously described.

The target in series [2] is T1, E. coli flavohemoglobin (NOD) (Escherichia coli, UniProt P24232).
From the text: (§1) The specific activities of the E. coli, A. eutrophus and S. cerevisiae NOD were 185, 90 and 105 NO heme^−1 s^−1, respectively.
In another series the test system is A549 cells. The series can be described thus: NO consumption (NO metabolism) by A549 cells. The series is classed as cell-based, human. Conditions: for activity at 20 µM: agent 20 μM; for Inhibition of NO metabolic activity, A549: porphyrin 100 μM. The text has this: . The results are show in Table II.
The subject of another series is S. cerevisiae. The series is described as follows: NO consumption (NOD) activity within S. cerevisiae. Type of series: cell-based, Saccharomyces cerevisiae. Particulars: 0 μM to about 20 μM miconazole. The source says:
Error bars represent the standard deviation of the average of three independent trials.

For series [3], the system named is S. cerevisiae parental strain BY4742. The series can be described thus: Growth of S. cerevisiae under NO atmosphere. The series is classed as cell-based, Saccharomyces cerevisiae. Particulars: 5 μM miconazole, 960 ppm NO, 21% O2.
Method: At the time indicated by the arrow, cultures were exposed to an atmosphere containing 960 ppm NO (<2 μM NO in solution) in a 21% O2/N2 balance (lines 2 and 4) or were maintained under an atmosphere of 21% O2 balanced with N2 (lines 1 and 3).
At the time indicated by the arrow, cultures were either maintained fewer than 21% O2 balanced with N2 (lines 1 and 3) or were exposed to 960 ppm NO in the 21% O2/N2-balanced atmosphere (lines 2 and 4). Cultures were grown and exposed to gases.
The target in another series is heme oxygenase. Particulars: cited from earlier work.
The target in series [4] is T2, NADPH-cytochrome P450 oxidoreductase (CYPOR) (Homo sapiens, UniProt P16435).
T2 sequence (P16435 1-677): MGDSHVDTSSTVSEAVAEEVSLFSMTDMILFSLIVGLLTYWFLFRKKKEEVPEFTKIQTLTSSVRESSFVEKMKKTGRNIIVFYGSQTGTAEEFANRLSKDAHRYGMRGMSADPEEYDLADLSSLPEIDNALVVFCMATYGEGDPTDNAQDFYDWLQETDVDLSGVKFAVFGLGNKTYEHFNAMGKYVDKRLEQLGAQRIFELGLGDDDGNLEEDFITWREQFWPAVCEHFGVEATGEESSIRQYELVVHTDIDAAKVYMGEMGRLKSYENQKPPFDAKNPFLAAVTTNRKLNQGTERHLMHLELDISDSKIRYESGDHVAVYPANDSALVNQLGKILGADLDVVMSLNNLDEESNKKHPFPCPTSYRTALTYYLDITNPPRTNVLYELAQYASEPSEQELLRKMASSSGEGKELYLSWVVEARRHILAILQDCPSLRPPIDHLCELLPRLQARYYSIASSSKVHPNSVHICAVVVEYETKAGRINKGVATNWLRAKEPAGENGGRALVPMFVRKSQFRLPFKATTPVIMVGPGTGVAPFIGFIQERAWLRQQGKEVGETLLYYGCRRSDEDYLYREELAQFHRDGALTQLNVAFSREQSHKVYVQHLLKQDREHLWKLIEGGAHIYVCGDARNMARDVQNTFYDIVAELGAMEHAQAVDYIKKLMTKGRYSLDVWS
The series can be described thus: CYPOR (cytochrome c reductase) activity. The protocol: The incubations contained 120 μl of Sucrose Buffer and 30 μl of PBS (8.1 mM Na2HPO4, 1.1 mM KH2PO4, 138 mM NaCl and 2.7 mM KCl, pH 7.4) introduced with IgG or BSA.

Series [5] relates to Caco-2 cells. The series is described as follows: NO consumption (NO metabolism) by Caco-2 cells. Conditions: for % Activity, Caco-2: agent 100 μM, 15 min incubation, 100% = 25.4±1.4 nmol NO per minute per 107 cells.
Method: (§2) Initial rates of NO consumption were measured at 1 μM NO unless otherwise stated, and all rates were corrected for background rates of NO decomposition. A milliunit of activity is defined as the amount metabolizing 1 nanomol NO per min. […] Rotenone (0.5 μM) was included in CO inhibition assays to block respiration and O2 depletion. […] Cell permeabilization was monitored by the loss of NO metabolic activity.
(§3) Error bars represent the SD of three independent trials.
(§4) In addition to cyanide and CO, heme-binding imidazoles, a panel of substrate-inhibitors of cytochrome P450s, inhibitors of the NO-binding heme oxygenases, and free radical scavengers were surveyed for effects on NO metabolism by Caco-2 and A549 cells. All agents were used at concentrations showing minimal cytotoxicity as defined by <5% decrease in trypan blue exclusion following 15 min exposure (data not shown). Caco-2 and A549 cells were grown, harvested and assayed for NO consumption activity following a 15 min incubation in 2 ml DPBS containing 5 mM glucose and 100 μg/ml cycloheximide with the indicated agent as previously described. Data represent the mean ±SD of three independent exposures.
Another series deals with flavohemoglobins. The series can be described thus: CO binding to ferrous hemes of flavohemoglobins. Conditions: read-out: dissociation equilibrium constants, ferrous hemes of flavohemoglobins.
Another series deals with flavohemoglobins (NOD). The series is described as follows: CO inhibition of flavohemoglobin NOD activities. Type of series: biochemical. Conditions: read-out: Ki, competitive inhibition of NOD activities with respect to O2.
Series [6] has as its target T3, A. eutrophus flavohemoglobin (Cupriavidus necator, UniProt P39662).
From the text: as §1
Series [7] relates to Caco-2 cells.
Method: as §2, §3, §4
Series [8] concerns the target T1, E. coli flavohemoglobin (NOD). The series is described as follows: biochemical.
From the text: as §1
The target in series [9] is T3, A. eutrophus flavohemoglobin. The series is described as follows: biochemical. Conditions: Apparent Ki.
From the text: as §1
In series [10] the target is S. cerevisiae flavohemoglobin (Saccharomyces cerevisiae, UniProt P39676). The series is described as follows: biochemical.
From the text: as §1
The mark [11] stands for this setting: Homo sapiens, A549, 0.25 h, 15 min incubation.

T3 sequence (P39662 whole entry): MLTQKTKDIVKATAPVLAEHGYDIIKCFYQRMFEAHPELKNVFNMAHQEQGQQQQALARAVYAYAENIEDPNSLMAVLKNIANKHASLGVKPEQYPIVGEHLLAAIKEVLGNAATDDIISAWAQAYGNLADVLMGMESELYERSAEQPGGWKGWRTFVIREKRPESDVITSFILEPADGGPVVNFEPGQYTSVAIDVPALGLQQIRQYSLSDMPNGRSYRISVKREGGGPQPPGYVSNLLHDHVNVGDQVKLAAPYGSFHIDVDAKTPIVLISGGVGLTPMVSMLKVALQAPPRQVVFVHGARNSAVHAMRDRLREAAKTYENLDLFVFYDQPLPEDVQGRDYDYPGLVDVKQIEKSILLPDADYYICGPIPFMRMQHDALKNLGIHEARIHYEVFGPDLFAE
T1 sequence (P24232 whole entry): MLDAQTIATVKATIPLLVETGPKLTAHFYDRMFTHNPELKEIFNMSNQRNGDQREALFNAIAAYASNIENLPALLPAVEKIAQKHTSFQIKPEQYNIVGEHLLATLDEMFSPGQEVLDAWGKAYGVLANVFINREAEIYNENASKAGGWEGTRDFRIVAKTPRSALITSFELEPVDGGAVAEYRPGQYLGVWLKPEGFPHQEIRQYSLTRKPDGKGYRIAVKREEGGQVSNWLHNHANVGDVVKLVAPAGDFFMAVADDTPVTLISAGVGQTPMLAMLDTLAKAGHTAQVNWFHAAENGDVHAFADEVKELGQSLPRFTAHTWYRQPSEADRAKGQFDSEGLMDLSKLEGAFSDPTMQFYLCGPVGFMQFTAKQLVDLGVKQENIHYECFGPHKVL
Sequence of S. cerevisiae flavohemoglobin (P39676 whole entry): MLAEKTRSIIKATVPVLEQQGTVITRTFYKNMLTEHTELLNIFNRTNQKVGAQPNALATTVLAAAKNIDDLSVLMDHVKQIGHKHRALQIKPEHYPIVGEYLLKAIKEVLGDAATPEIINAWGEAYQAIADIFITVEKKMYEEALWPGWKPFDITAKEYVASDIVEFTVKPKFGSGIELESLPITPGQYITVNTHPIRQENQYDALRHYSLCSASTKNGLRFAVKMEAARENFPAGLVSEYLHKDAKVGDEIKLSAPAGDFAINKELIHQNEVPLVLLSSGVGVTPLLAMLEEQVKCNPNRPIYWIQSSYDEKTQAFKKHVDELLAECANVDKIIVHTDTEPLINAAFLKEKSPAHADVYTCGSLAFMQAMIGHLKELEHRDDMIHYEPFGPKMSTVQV

Consider `c1ccc2c(c1)[I+]c1ccccc1-2` [DPI, Diphenyleneiodonium], for which the “Loss of microsomal NO metabolic activity” value in series [1] is on record as “Seventy-five percent”.
Regarding `C=CCS[S+]([O-])CC=C` (stereo not drawn) [Allicin, diallyl thiosulfinate], the “Effect on isolated E. coli NOD” value in [2] is given as “inactivates the isolated E. coli NOD”.
In general, IC50 refers to the point on the concentration scale where inhibition reaches its midpoint. Take `Clc1ccc(COC(Cn2ccnc2)c2ccc(Cl)cc2Cl)cc1` (stereo not drawn) [econazole]: in the series on A549 cells (setting [11]), the activity at 20 µM stood at 36.2 ± 4.9%. The “% Activity, microsomal NO metabolism” value in [1] (100 µM) was found to be 15.3 ± 0.0%. In series [1] (Caco-2 microsomes), the half-maximal inhibitory concentration (IC50) stood at 10 µM.
For `Clc1ccc(COC(Cn2ccnc2)c2ccc(Cl)cc2Cl)c(Cl)c1` (stereo not drawn) [miconazole], the activity at 20 µM in the series with A549 cells (setting [11]) amounted to 38.2 ± 5.9%. Also, in series [1] (100 µM), the “% Activity, microsomal NO metabolism” value was found to be 17.0 ± 0.0%. Further, the IC50 in [1] (Caco-2 microsomes) amounted to 20 µM. Also, the “Effect on NOD activity in S. cerevisiae” value with S. cerevisiae is “inhibition of NOD activity”. In addition, the “Effect on growth of S. cerevisiae together with NO” value in [3] is “synergistically inhibited growth of S. cerevisiae”.
In the case of “Sn(IV)-protoporphyrin IX [Sn4+-protoporphyrin]”, the “Inhibition of NO metabolic activity, A549” value with A549 cells is on record as “no effect”. Further, the Ki at heme oxygenase is under 0.1 µM.
Regarding `Cc1c(C)c2c(c(C)c1O)CC[C@@](C)(CCC[C@H](C)CCC[C@H](C)CCCC(C)C)O2` [α-tocopherol], the “% Activity, microsomal NO metabolism” value in series [1] (inhibitor 100 μM) came to 106.9 ± 3.4%.
`C=CC1=C(C)c2cc3[n-]c(cc4[n-]c(cc5nc(cc1n2)C(C)=C5C=C)c(C)c4CCC(=O)O)c(CCC(=O)O)c3C.[Zn+2]` [Zn2+-protoporphyrin, Zn(II)-protoporphyrin IX]: the “Inhibition of NO metabolic activity, A549” value with A549 cells was “about 40%”. The “Effect of porphyrins on microsomal NO metabolism” value in series [1] is “inhibited microsomal NO metabolism”. Besides, the “Effect on cytochrome c reduction by microsomal membranes and purified CYPOR” value in series [4] is listed as “progressive inhibition of cytochrome c reduction”.
In the case of `O=c1c(O)c(-c2ccc(O)c(O)c2)oc2cc(O)cc(O)c12` [quercetin], the “% Activity, microsomal NO metabolism” value in series [1] (inhibitor 100 μM) is 84.1 ± 4.4%.
`Nc1ccc(S(=O)(=O)Nc2ccnn2-c2ccccc2)cc1` [sulfaphenazole]: the “% Activity, Caco-2” value with Caco-2 cells [5] is listed as 97.1 ± 3.0%.
In the case of `COC(=O)[C@@H](N)CCCNC(=N)N[N+](=O)[O-]` [L-NAME, N ω-nitro-L-arginine methyl ester], the activity at 1000 µM in the series on A549 cells (Homo sapiens, A549, 0.25 h, agent 1 mM, 15 min incubation) came out at 101 ± 2.9%. Moreover, in series [1] (inhibitor 1 mM), the “% Activity, microsomal NO metabolism” value amounted to 96.7 ± 6.0%.
For the molecule `[C-]#[O+]` [CO, carbon monoxide], in series [1] (10 μM CO, 20 μM O2, 1 μM NO), the “Inhibition of microsomal NO consumption” value is on record as over 50%. For the same molecule, the “Inhibition of NO metabolism by CO, microsomes” value in series [1] (CO:O2 ratio 0.75) is reported as “about 75%”. Also, the Kd at flavohemoglobins is under 0.7 µM. For the same molecule, the Ki at flavohemoglobins (NOD) is about 1 µM; in the series on Caco-2 cells [5] (read-out: Ki(CO), competitive inhibition of cellular NO metabolism, 5 μM CO, 12.5 μM O2, competitive with O2), ~3 µM and 3 µM. Moreover, in the series with Caco-2 cells [5] (CO:O2 ratio 0.4), the “Inhibition of NO metabolism by CO, cells” value is given as “about 75%”.
As to `CC(=O)N1CCN(c2ccc(OCC3COC(Cn4ccnc4)(c4ccc(Cl)cc4Cl)O3)cc2)CC1` (stereo not drawn) [ketoconazole], the “% Activity, microsomal NO metabolism” value in series [1] (100 µM) was 25.9 ± 2.6%. Further, the IC50 in series [1] was 10 µM. Further, the “Fraction inhibited as percentage of total activity, first (major) phase” value in series [6] (belongs to the first-phase Ki) was “(˜75%)”. The “Fraction inhibited as percentage of total activity, second (minor) phase” value in series [6] (belongs to the second-phase Ki) is listed as “(˜25%)”. Moreover, the “% Activity, Caco-2” value in the series on Caco-2 cells [7] is listed as 22.3 ± 4.1%. In addition, the Ki in series [8] is 5 µM; in series [9] (first (major) phase), 0.7 µM; in series [9] (second (minor) phase), 25 µM; in series [10], over 100 µM.
As to `C=CCSCC=C` [diallyl sulfide], the “% Activity, Caco-2” value in the series with Caco-2 cells [5] was determined as 98.1 ± 1.7%.
For the molecule `Cc1nc2c([nH]1)c(=O)n(C)c(=O)n2Cc1ccco1` [furafylline], in the series on A549 cells (Homo sapiens, A549, 0.25 h, agent 10 μM, 15 min incubation), the activity at 10 µM was 98.2 ± 3.1%.
Regarding `C=CC1=C(C)c2cc3[nH]c(cc4nc(cc5[nH]c(cc1n2)c(C)c5CCC(=O)O)C(CCC(=O)O)=C4C)c(C)c3C=C` [protoporphyrin, Protoporphyrin IX], the “Effect of porphyrins on microsomal NO metabolism” value in series [1] is listed as “inhibited NO metabolism to a significant (p<0.05), albeit lesser, extent”. Besides, in series [4] (20 μM, data not shown), the “Effect on cytochrome c reduction by microsomal membranes and purified CYPOR” value is reported as “progressive inhibition of cytochrome c reduction”.
